Experimental data from the supplement of paper PMC11061612.

Tests used:
[1] = system: Hs-766T (Pancreatic Carcinoma); experiment: Bliss excess, mean over the matrix (fraction); higher = more synergy
Method in brief: (§1)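 After 24 hours at 37°C and 5% CO2 in 1536-well plates, cells in DMEM/F12 or RPMI plus 10% FBS received two-drug dose matrices for 72 hours. Viability came from CellTiter-Glo 2.0 luminescence and was scaled as inhibition, anchored at 0 by vehicle wells and at 1 by blank wells. Combination Emax is taken as the second-highest inhibition in the matrix, and Bliss excess as the observed combination effect less EA + EB − EA·EB, with EA and EB the single-agent effects.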

D-263MG (Glioblastoma) = experiment: as above
Method in brief: as §1

[2] = system: PANC-04-03 (Pancreatic Carcinoma); experiment: as above
Method in brief: as §1

[3] = system: EFM-19 (Breast Carcinoma); experiment: as above
Method in brief: as §1

[4] = system: KYSE-450 (Esophageal Squamous Cell Carcinoma); experiment: as above
Method in brief: as §1

[5] = system: MLMA (Other Blood Carcinomas); experiment: as above
Method in brief: as §1

[6] = system: RF-48 (B-Cell Non-Hodgkin's Lymphoma); experiment: as above
Method in brief: as §1

[7] = system: AMO-1 (Plasma Cell Myeloma); experiment: as above
Method in brief: as §1

UACC-62 (Melanoma) [8] = experiment: as above
Method in brief: as §1

[9] = system: SW13 (Other Solid Carcinomas); experiment: as above
Method in brief: as §1

[10] = system: NCI-H358 (Lung Adenocarcinoma); experiment: as above
Method in brief: as §1

[11] = system: EoL-1-cell (Acute Myeloid Leukemia); experiment: as above
Method in brief: as §1

[12] = system: KARPAS-299 (T-Cell Non-Hodgkin's Lymphoma); experiment: as above
Method in brief: as §1

[13] = system: MIA-PaCa-2 (Pancreatic Carcinoma); experiment: as above
Method in brief: as §1

[14] = system: NCI-H727 (Other Solid Carcinomas); experiment: as above
Method in brief: as §1

[15] = system: Hs-766T (Pancreatic Carcinoma); experiment: combination Emax (second highest fraction inhibited in the dose matrix, 72 h); higher = more inhibition; extreme values may be limits of the assay
Method in brief: as §1

[16] = system: EFM-19 (Breast Carcinoma); experiment: as above
Method in brief: as §1

UACC-62 (Melanoma) [17] = experiment: as above
Method in brief: as §1

[18] = system: LU-65 (Non-Small Cell Lung Carcinoma); experiment: as above
Method in brief: as §1

[19] = system: NCI-H727 (Other Solid Carcinomas); experiment: as above
Method in brief: as §1
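For Bliss excess, mean over the matrix in this document: after 72 h of two-drug dosing.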

Compound | Bliss excess [1] | Bliss excess (D-263MG (Glioblastoma)) | Bliss excess [2] | Bliss excess [3] | Bliss excess [4] | Bliss excess [5] | Bliss excess [6] | Bliss excess [7] | Bliss excess (UACC-62 (Melanoma) [8]) | Bliss excess [9] | Bliss excess [10] | Bliss excess [11] | Bliss excess [12] | Bliss excess [13] | Bliss excess [14] | combination Emax [15] | combination Emax [16] | combination Emax (UACC-62 (Melanoma) [17]) | combination Emax [18] | combination Emax [19]
Cc1cc2ncnn2cc1Nc1ncc2c(n1)n(C1CCOCC1)c(=O)n2C [AZD7648] + COc1cc([C@@H]2c3cc4c(cc3[C@@H](O[C@@H]3O[C@@H]5CO[C@@H](C)O[C@H]5[C@H](O)[C@H]3O)[C@H]3COC(=O)[C@H]23)OCO4)cc(OC)c1O [Etoposide] (first compound max 10 µM, 7x7, partner max 10 µM) | -0.0566 | 0.0729 | 0.017 | -0.0295 | 0.0385 | -0.0968 | 0.0671 | 0.138 | 0.045 | 0.0808 | -0.0079 | 0.191 | 0.0522 | 0.05 | -0.0041 | 0.253 | 0.615 | 0.642 | 0.897 | 0.269
Cc1cc2ncnn2cc1Nc1ncc2c(n1)n(C1CCOCC1)c(=O)n2C [AZD7648] + C[C@@H]1COCCN1C2=NC(=NC(=C2)C3(CC3)[S@](=N)(=O)C)C4=C5C=CNC5=NC=C4 [AZD6738] (first compound max 10 µM, 7x7, partner max 10 µM) | 0.0552 | -0.0206 | 0.0123 | 0.0323 | 0.0281 | -0.0289 | 0.0071 | -0.0184 | 0.0529 | 0.0707 | 0.0099 | -0.0123 | -0.0183 | -0.0254 | 0.0381 | 0.636 | 0.541 | 0.624 | 0.656 | 0.545
Cc1cc2ncnn2cc1Nc1ncc2c(n1)n(C1CCOCC1)c(=O)n2C [AZD7648] + O=C(c1cc(Cc2n[nH]c(=O)c3ccccc23)ccc1F)N1CCN(C(=O)C2CC2)CC1 [Olaparib] (first compound max 10 µM, 7x7, partner max 10 µM) | -0.0491 | -0.0367 | -0.0369 | -0.0652 | -0.0635 | -0.0087 | 0.0158 | -0.0231 | -0.0219 | -0.0454 | -0.0179 | 0.0142 | -0.0098 | -0.0246 | -0.0641 | 0.353 | 0.401 | 0.253 | 0.312 | 0.218
Cc1nc(Nc2ncc(C(=O)Nc3c(C)cccc3Cl)s2)cc(N2CCN(CCO)CC2)n1 [Dasatinib] + CC(=O)Nc1cccc(-n2c(=O)n(C3CC3)c(=O)c3c(Nc4ccc(I)cc4F)n(C)c(=O)c(C)c32)c1 [Trametinib] (first compound max 2 µM, 7x7, partner max 1 µM) | 0.0971 | -0.031 | 0.0163 | -0.0957 | -0.0101 | -0.0324 | -0.0369 | 0.058 | 0.0064 | -0.0548 | 0.004 | -0.0157 | 0.0122 | 0.156 | -0.0357 | 0.777 | 0.199 | 0.888 | 0.564 | 0.701
COc1cc2ncnc(Nc3ccc(F)c(Cl)c3)c2cc1OCCCN1CCOCC1 [Gefitinib] + CC(C)n1c(=O)n(C)c2cnc3cc(F)c(-c4ccc(OCCCN5CCCCC5)nc4)cc3c21 [AZD1390] (first compound max 10 µM, 7x7, partner max 0.3 µM) | -0.0908 | -0.0401 | -0.0853 | -0.0722 | -0.0177 | -0.0358 | -0.0283 | -0.0485 | -0.0358 | -0.0233 | -0.0493 | -0.0385 | -0.0218 | -0.0307 | -0.108 | 0.181 | 0.158 | 0.248 | 0.268 | 0.157
COc1cc2c(cc1OCCCCCOc1cc3c(cc1OC)C(=O)N1C=C(C)C[C@H]1C=N3)N=C[C@@H]1CC(C)=CN1C2=O [SG3199] + O=C(c1cc(Cc2n[nH]c(=O)c3ccccc23)ccc1F)N1CCN(C(=O)C2CC2)CC1 [Olaparib] (first compound max 0.001 µM, 7x7, partner max 10 µM) | -0.0433 | -0.018 | -0.046 | -0.063 | -0.041 | -0.0269 | 0.0133 | -0.0342 | -0.0663 | -0.0184 | -0.0353 | -0.0348 | -0.0122 | -0.0415 | -0.0726 | 0.0914 | 0.171 | 0.0735 | 0.24 | 0.24
N#Cc1cnc(Nc2cc(NC[C@H]3CNCCO3)c(C(F)(F)F)cn2)cn1 [SRA737] + C=CCn1c(=O)c2cnc(Nc3ccc(N4CCN(C)CC4)cc3)nc2n1-c1cccc(C(C)(C)O)n1 [AZD1775] (first compound max 10 µM, partner max 1 µM) | 0.0161 | 0.0096 | 0.0182 | -0.044 | 0.119 | -0.0114 | -0.0171 | 0.0986 | 0.0048 | 0.0091 | -0.0155 | -0.0097 | 0.0776 | 0.139 | 0.0694 | 0.512 | 0.413 | 0.304 | 0.887 | 0.667
N#Cc1cnc(Nc2cc(NC[C@H]3CNCCO3)c(C(F)(F)F)cn2)cn1 [SRA737] + CCc1c2c(nc3ccc(O)cc13)-c1cc3c(c(=O)n1C2)COC(=O)[C@]3(O)CC [SN-38] (first compound max 10 µM, 7x7, partner max 0.3 µM) | -0.0095 | 0.0777 | -0.0583 | 0.107 | 0.157 | -0.061 | -0.0047 | -0.0225 | 0.0364 | -0.0192 | 0.0057 | -0.0375 | 0.0148 | 0.0599 | 0.0316 | 0.631 | 0.689 | 0.664 | 0.906 | 0.609
N#Cc1cnc(Nc2cc(NC[C@H]3CNCCO3)c(C(F)(F)F)cn2)cn1 [SRA737] + Nc1ccn([C@@H]2O[C@H](CO)[C@@H](O)C2(F)F)c(=O)n1 [Gemcitabine] (first compound max 10 µM, 7x7, partner max 0.3 µM) | 0.003 | 0.0556 | -0.0036 | 0.0489 | 0.114 | -0.0924 | 0.0451 | 0.0377 | 0.019 | 0.0367 | -0.0054 | 0.0316 | 0.0707 | 0.124 | -0.0046 | 0.477 | 0.684 | 0.788 | 0.862 | 0.436
N#Cc1cnc(Nc2cc(NC[C@H]3CNCCO3)c(C(F)(F)F)cn2)cn1 [SRA737] + O=c1[nH]cc(F)c(=O)[nH]1 [5-Fluorouracil] (first compound max 10 µM, 7x7, partner max 20 µM) | 0.0415 | -0.0456 | 0.0102 | 0.0189 | -0.0348 | -0.0455 | -0.0095 | -0.0004 | -0.0561 | -0.026 | -0.0743 | -0.0084 | 0.0529 | -0.0352 | 0.001 | 0.405 | 0.355 | 0.098 | 0.778 | 0.428
C[C@@H](c1ccc2nccn2c1)n1nnc2ncc(-c3cnn(C)c3)nc21 [Savolitinib] + CC1(C)CCC(CN2CCN(c3ccc(C(=O)NS(=O)(=O)c4ccc(NCC5CCOCC5)c([N+](=O)[O-])c4)c(Oc4cnc5[nH]ccc5c4)c3)CC2)=C(c2ccc(Cl)cc2)C1 [Venetoclax] (first compound max 1 µM, 7x7, partner max 1 µM) | -0.0681 | -0.0797 | -0.0736 | -0.0273 | -0.0471 | -0.022 | -0.0502 | 0.0036 | -0.0111 | -0.0363 | -0.0564 | 0.0273 | -0.0121 | -0.0355 | -0.0536 | 0.252 | 0.182 | 0.24 | 0.129 | 0.157
C[C@@H](c1ccc2nccn2c1)n1nnc2ncc(-c3cnn(C)c3)nc21 [Savolitinib] + Cc1c2c(nn1C)CSCc1cc(n(C)n1)CSc1cc(c3ccccc3c1)OCCCc1c(C(=O)O)n(C)c3c-2c(Cl)ccc13 [AZD5991] (first compound max 1 µM, 7x7, partner max 1 µM) | -0.0404 | -0.0571 | -0.0216 | -0.0236 | -0.0186 | -0.0122 | -0.029 | 0.0251 | 0.0285 | -0.0541 | -0.0538 | 0.0703 | 0.081 | -0.007 | -0.0099 | 0.233 | 0.223 | 0.545 | 0.179 | 0.203
